Measurements taken from PMC2806602 (The Journal of neuroscience : the official journal of the …, 2009).
Numbering of substitutions follows the chain as printed. Where two headings read alike, the source gives them in different places.

How the values were obtained:
GluRδ2^Lc = target: T1, GluRδ2^Lc (Rattus norvegicus, UniProt Q63226, A654T); type: cell-based
T1 sequence (Q63226 24-1007 A654T): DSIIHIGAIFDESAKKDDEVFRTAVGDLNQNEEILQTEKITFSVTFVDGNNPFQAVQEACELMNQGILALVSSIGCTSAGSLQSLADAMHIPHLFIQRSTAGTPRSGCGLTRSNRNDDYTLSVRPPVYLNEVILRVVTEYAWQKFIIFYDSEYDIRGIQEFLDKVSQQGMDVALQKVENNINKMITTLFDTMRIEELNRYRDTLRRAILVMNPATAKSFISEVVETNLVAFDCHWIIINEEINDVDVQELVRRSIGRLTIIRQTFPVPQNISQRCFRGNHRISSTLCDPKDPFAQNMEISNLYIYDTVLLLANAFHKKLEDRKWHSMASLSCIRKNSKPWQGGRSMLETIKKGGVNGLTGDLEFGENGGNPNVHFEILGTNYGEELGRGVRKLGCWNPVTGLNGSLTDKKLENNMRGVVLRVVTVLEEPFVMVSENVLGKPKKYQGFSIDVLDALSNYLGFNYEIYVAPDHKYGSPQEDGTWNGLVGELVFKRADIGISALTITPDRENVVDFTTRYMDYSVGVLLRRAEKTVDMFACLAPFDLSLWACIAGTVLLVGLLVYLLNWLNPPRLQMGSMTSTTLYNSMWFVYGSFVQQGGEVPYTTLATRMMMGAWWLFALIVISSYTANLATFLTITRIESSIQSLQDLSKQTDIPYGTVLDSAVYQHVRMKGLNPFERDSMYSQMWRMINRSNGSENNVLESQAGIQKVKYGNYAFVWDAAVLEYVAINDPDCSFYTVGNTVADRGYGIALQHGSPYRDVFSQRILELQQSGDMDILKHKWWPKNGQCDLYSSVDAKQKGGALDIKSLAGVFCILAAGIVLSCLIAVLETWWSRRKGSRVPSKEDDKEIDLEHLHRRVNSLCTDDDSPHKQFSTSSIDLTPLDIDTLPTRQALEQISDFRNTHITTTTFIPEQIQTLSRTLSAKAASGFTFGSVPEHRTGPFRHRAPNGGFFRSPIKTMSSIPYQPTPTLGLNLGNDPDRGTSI

GluRδ2^Lc D535C+D782C = target: T2, GluRδ2^Lc D535C+D782C (Rattus norvegicus, UniProt Q63226, A654T/D535C/D782C); assay: Two-electrode voltage-clamp recordings in Xenopus oocytes, GluRδ2^Lc D535C+D782C; type: cell-based
T2 sequence (Q63226 24-1007 D535C/A654T/D782C): T1 sequence (Q63226 24-1007 A654T) with D512C, D759C

[Ca+2] [Ca^2+, calcium]
spontaneously active current relative to baseline with Ba^2+ (GluRδ2^Lc; 0.5 mM Ba^2+ exchanged with 0.5 mM of the divalent cation): 3.91 ± 0.22
Ca^2+ potentiation (relative to baseline) (GluRδ2^Lc; 3 mM Ca^2+, baseline spontaneously active current, ± SEM): 3.8 ± 0.23 fold
maximal fold potentiation relative to baseline spontaneously active currents (GluRδ2^Lc; Ca^2+ concentration-response, fitted maximum): 4.1 ± 0.2 fold
nH of reduction of D-serine potency by extracellular Ca^2+ (GluRδ2^Lc; Hill coefficient): 1.3
nH of Ca^2+ potentiation of GluRδ2^Lc currents (GluRδ2^Lc; Hill coefficient, in the absence of D-serine): 1.7
nH of Ca^2+ potentiation of GluRδ2^Lc currents (GluRδ2^Lc; Hill coefficient, in the presence of 1 mM D-serine): 2.3
EC50 (GluRδ2^Lc; read-out: EC50 of Ca^2+ to potentiate GluRδ2^Lc currents, in the presence of 1 mM D-serine): 676 ± 13 µM
EC50 (GluRδ2^Lc; read-out: EC50 of Ca^2+ to potentiate spontaneously active GluRδ2^Lc currents, in the absence of D-serine): 205 ± 7 µM
Ca^2+ potentiation (relative to baseline) (GluRδ2^Lc D535C+D782C; 3 mM Ca^2+, ± SEM): 0.9 ± 0.01 fold

N[C@H](CO)C(=O)O [D-serine]
D-serine + 0 mM Ca^2+ nH (GluRδ2^Lc; Hill slope, 0 mM Ca^2+): 1.0
D-serine + 3 mM Ca^2+ nH (GluRδ2^Lc; Hill slope, 3 mM Ca^2+): 2.1
D-serine + 0 mM Ca^2+ nH (GluRδ2^Lc D535C+D782C; Hill slope, 0 mM Ca^2+): 0.9
D-serine + 3 mM Ca^2+ nH (GluRδ2^Lc D535C+D782C; Hill slope, 3 mM Ca^2+): 1.0
